The source of these data is PubChem BioAssay AID602151 (Vanderbilt Specialized Chemistry Center, 2011).

By IC50 is commonly meant the concentration needed to halve the response being measured.

The target of this assay is Phospholipase D1 (Homo sapiens) (UniProt Q13393). As to the kind of experiment: cellular phospholipase D1 inhibition IC50 – cell-based, dose response (AID 602151). The conditions noted are these: cellular PLD1 activity assay.
Sequence of Phospholipase D1 (Homo sapiens) (Q13393 whole entry, looked up): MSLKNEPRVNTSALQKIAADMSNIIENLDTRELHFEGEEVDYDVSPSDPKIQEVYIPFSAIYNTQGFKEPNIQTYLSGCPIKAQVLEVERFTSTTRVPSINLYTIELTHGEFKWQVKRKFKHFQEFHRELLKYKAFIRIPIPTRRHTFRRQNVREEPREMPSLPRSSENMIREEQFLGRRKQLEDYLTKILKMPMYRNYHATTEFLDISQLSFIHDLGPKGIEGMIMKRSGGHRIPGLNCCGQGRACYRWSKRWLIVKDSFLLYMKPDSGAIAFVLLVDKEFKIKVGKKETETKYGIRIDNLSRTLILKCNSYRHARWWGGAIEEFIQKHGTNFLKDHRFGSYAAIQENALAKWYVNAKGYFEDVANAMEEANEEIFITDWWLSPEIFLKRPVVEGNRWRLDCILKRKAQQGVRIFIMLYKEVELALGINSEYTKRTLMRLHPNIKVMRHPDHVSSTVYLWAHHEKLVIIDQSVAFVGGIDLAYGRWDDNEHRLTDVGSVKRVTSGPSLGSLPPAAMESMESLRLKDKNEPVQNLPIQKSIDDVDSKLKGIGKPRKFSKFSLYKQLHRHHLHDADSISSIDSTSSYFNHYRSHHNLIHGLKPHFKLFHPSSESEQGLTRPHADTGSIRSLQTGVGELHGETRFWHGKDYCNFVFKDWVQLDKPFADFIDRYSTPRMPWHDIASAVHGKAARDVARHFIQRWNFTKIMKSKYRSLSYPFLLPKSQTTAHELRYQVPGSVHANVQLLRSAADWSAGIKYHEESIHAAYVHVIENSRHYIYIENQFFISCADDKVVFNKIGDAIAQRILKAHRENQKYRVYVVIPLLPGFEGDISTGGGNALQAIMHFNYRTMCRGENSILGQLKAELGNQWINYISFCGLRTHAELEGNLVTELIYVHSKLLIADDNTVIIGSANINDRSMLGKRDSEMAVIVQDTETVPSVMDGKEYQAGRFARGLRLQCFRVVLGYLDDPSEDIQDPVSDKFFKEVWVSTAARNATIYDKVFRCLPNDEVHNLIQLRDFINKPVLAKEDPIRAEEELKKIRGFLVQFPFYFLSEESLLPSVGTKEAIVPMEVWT
Sequence of Phospholipase D1 (Homo sapiens) (Q13393 whole entry, looked up): as above
As to `O=C(NCCN1CCC2(CC1)C(=O)NCN2c1ccc(F)c(F)c1)c1cc2cc(F)ccc2[nH]1`, the IC50 was 0.39 µM.

On to `O=C(NCCN1CCC2(CC1)C(=O)NCN2c1cccc(Cl)c1)c1cc2cc(F)ccc2[nH]1`, for which the IC50 is 0.25 µM.

Take `O=C(NCCN1CCC2(CC1)C(=O)NCN2c1ccccc1)c1cnc2ccccc2c1`: the IC50 was 1.9 µM.

As to `O=C(NCCN1CCC2(CC1)C(=O)NCN2c1ccc(Br)cc1)c1ccc2ccccc2c1`, the IC50 was 5.9 µM.

On to `O=C(NCCN1CCC2(CC1)C(=O)NCN2c1ccc(F)cc1)c1cnc2ccccc2c1`, for which the IC50 is 2 µM.

Turning to `O=C(NCCN1CCC2(CC1)C(=O)NCN2c1ccc(Cl)cc1)c1ccc2ccccc2c1`, the IC50 was 2.27 µM.

`O=C(NCCN1CCC2(CC1)C(=O)NCN2c1ccccc1)c1cc2ccccc2s1`: the IC50 is 0.15 µM.

For the compound `O=C(NCCN1CCC2(CC1)C(=O)NCN2c1cccc(Cl)c1)c1ccc2ccccc2c1`, the IC50 was 1.2 µM.

For the compound `COc1cc(C(=O)NCCN2CCC3(CC2)C(=O)NCN3c2ccccc2)ccc1N`, the IC50 was 5.9 µM.

For `O=C(NCCN1CCC2(CC1)C(=O)NCN2c1cccc(F)c1)c1cc2cc(F)ccc2[nH]1`, the IC50 was 0.21 µM.

On to `O=C(NCCN1CCC2(CC1)C(=O)NCN2c1ccc(Br)cc1)c1ccc(F)cc1`, for which the half-maximal inhibitory concentration (IC50) is 10 µM.

For the compound `O=C(NCCN1CCC2(CC1)C(=O)NCN2c1ccc(Cl)cc1)c1ccc(F)cc1`, the IC50 was 5.59 µM.

Take `O=C(NCCN1CCC2(CC1)C(=O)NCN2c1ccc(F)cc1)c1ccc2ccccc2c1`: the IC50 was 1.7 µM.

In the case of `C[C@@H](CN1CCC2(CC1)C(=O)NCN2c1cccc(F)c1)NC(=O)c1ccc2ccccc2c1`, the IC50 was 0.01 µM.

Consider `Cc1cccc(C(=O)N[C@@H](C)CN2CCC3(CC2)C(=O)NCN3c2ccccc2)c1`, for which the IC50 was 3.4 µM.

`O=C(NCCN1CCC2(CC1)C(=O)NCN2c1cccc(Cl)c1)c1ccc(F)cc1`: the IC50 was 3.47 µM.

For the compound `O=C(NCCN1CCC2(CC1)C(=O)NCN2c1ccc(F)c(F)c1)c1ccc2ccccc2c1`, the IC50 is 2.81 µM.

As to `O=C(NCCN1CCC2(CC1)C(=O)NCN2c1cccc(Cl)c1)c1cnc2ccccc2c1`, the IC50 was 0.87 µM.

As for `O=C(NCCN1CCC2(CC1)C(=O)NCN2c1ccc(Br)cc1)c1cnc2ccccc2c1`, the IC50 was 2.7 µM.

`O=C(NCCN1CCC2(CC1)C(=O)NCN2c1ccc(Br)cc1)c1cc2cc(F)ccc2[nH]1`: the IC50 is 2.66 µM.

Consider `O=C(C#Cc1ccccc1)NCCN1CCC2(CC1)C(=O)NCN2c1ccccc1`, for which the IC50 was 2.13 µM.

On to `O=C(NCCN1CCC2(CC1)C(=O)NCN2c1ccc(Cl)cc1)c1cc2cc(F)ccc2[nH]1`, for which the concentration for half-maximal inhibition (IC50) was 0.335 µM.

On to `O=C(NCCN1CCC2(CC1)C(=O)NCN2c1ccc(F)c(F)c1)c1cnc2ccccc2c1`, for which the IC50 was 2.06 µM.

For `C[C@@H](CN1CCC2(CC1)C(=O)NCN2c1ccccc1)NC(=O)c1ccc(F)c(F)c1`, the IC50 was 0.15 µM.

Regarding `O=C(NCCN1CCC2(CC1)C(=O)NCN2c1cccc(F)c1)c1cnc2ccccc2c1`, the half-maximal inhibitory concentration (IC50) is 2.5 µM.

For the compound `O=C(NCCN1CCC2(CC1)C(=O)NCN2c1ccc(F)cc1)c1cc2cc(F)ccc2[nH]1`, the half-maximal inhibitory concentration (IC50) was 0.29 µM.

Regarding `O=C(NCCN1CCC2(CC1)C(=O)NCN2c1ccc(F)c(F)c1)c1ccc(F)cc1`, the 50% inhibitory concentration (IC50) is 5.78 µM.

For `O=C(NCCN1CCC2(CC1)C(=O)NCN2c1ccc(F)cc1)c1ccc(F)cc1`, the IC50 is 14 µM.

On to `O=C(NCCN1CCC2(CC1)C(=O)NCN2c1ccc(Cl)cc1)c1cnc2ccccc2c1`, for which the IC50 was 3.5 µM.
